# From patent publication US20130303509A1, “NAMPT INHIBITORS” (AbbVie Inc., priority 2012, published 2013)
# Test system: PC3 cells
# Assay: NAMPT Cell Proliferation Assay
# Assay type: cell-based
# Settings: Homo sapiens, PC-3, 120 h, 5 days incubation, cell viability by Cell Titer Glo
# Method: NAMPT Cell Proliferation Assay
# PC3 cells were seeded in 96-well black plates (Corning #3904) at 500 cells)Owell in 90 µl of RPMI media containing 10% heat-inactivated FBS and incubated overnight at 37° C. and 5% CO2 to allow cells to attach to wells. The following day, test compounds were serially diluted in neat DMSO to 1000× final concentrations prior to dilution with RPMI media to 10× and 1% DMSO. […] of the 10× compounds were then transferred to wells containing cells to produce a dose response of 10-fold dilutions from […] to 1×10^−[…]. Cells were incubated for 5 days at 37° C. and 5% CO2, then cell viability was measured using Cell Titer Glo reagent (Promega #G7571). Percent inhibition values were calculated and fitted to a sigmoidal dose response curves using Assay Explorer software to determine IC50s.
row,SMILES,IC50 [nM]
1,"O=C(Nc1ccc(OC2CCN(C(=O)c3cccs3)CC2)cc1)C1CN(c2cccnc2)C1 [Example 61, 1-(pyridin-3-yl)-N-(4-{[1-(thiophen-2-ylcarbonyl)piperidin-4-yl]oxy}phenyl)azetidine-3-carboxamide]",3.52
2,"Cc1ccc(C(=O)N2CCC(Oc3ccc(NC(=O)C4CN(c5cccnc5)C4)cc3)CC2)s1 [Example 62, N-[4-({1-[(5-methylthiophen-2-yl)carbonyl]piperidin-4-yl}oxy)phenyl]-1-(pyridin-3-yl)azetidine-3-carboxamide]",14.2
3,"O=C(Nc1ccc(OC2CCN(C(=O)c3ccco3)CC2)cc1)C1CN(c2cccnc2)C1 [Example 63, N-(4-{[1-(furan-2-ylcarbonyl)piperidin-4-yl]oxy}phenyl)-1-(pyridin-3-yl)azetidine-3-carboxamide]",6.35
4,"Cn1cccc1C(=O)N1CCC(Oc2ccc(NC(=O)C3CN(c4cccnc4)C3)cc2)CC1 [Example 64, N-[4-({1-[(1-methyl-1H-pyrrol-2-yl)carbonyl]piperidin-4-yl}oxy)phenyl]-1-(pyridin-3-yl)azetidine-3-carboxamide]",6.32
5,"CCC(=O)N1CCC(Oc2ccc(NC(=O)C3CN(c4cccnc4)C3)cc2)CC1 [Example 65, N-{4-[(1-propanoylpiperidin-4-yl)oxy]phenyl}-1-(pyridin-3-yl)azetidine-3-carboxamide]",6.38
6,"CC1(C(=O)N2CCC(Oc3ccc(NC(=O)C4CN(c5cccnc5)C4)cc3)CC2)CC1 [Example 66, N-[4-({1-[(1-methylcyclopropyl)carbonyl]piperidin-4-yl}oxy)phenyl]-1-(pyridin-3-yl)azetidine-3-carboxamide]",5.81
7,"CN(C)CCC(=O)N1CCC(Oc2ccc(NC(=O)C3CN(c4cccnc4)C3)cc2)CC1 [Example 67, N-(4-{[1-(N,N-dimethyl-beta-alanyl)piperidin-4-yl]oxy}phenyl)-1-(pyridin-3-yl)azetidine-3-carboxamide]",386
8,"O=C(Nc1ccc(OC2CCN(C(=O)c3nccs3)CC2)cc1)C1CN(c2cccnc2)C1 [Example 68, 1-(pyridin-3-yl)-N-(4-{[1-(1,3-thiazol-2-ylcarbonyl)piperidin-4-yl]oxy}phenyl)azetidine-3-carboxamide]",3.54
9,"O=C(Nc1ccc(OC2CCN(C(=O)CC3CCCC3)CC2)cc1)C1CN(c2cccnc2)C1 [Example 69, N-(4-{[1-(cyclopentylacetyl)piperidin-4-yl]oxy}phenyl)-1-(pyridin-3-yl)azetidine-3-carboxamide]",4.22
10,"CC(C)C(C)C(=O)N1CCC(Oc2ccc(NC(=O)C3CN(c4cccnc4)C3)cc2)CC1 (stereo not drawn) [Example 70, N-(4-{[1-(2,3-dimethylbutanoyl)piperidin-4-yl]oxy}phenyl)-1-(pyridin-3-yl)azetidine-3-carboxamide]",3.97
11,"Cc1ncccc1N1CC(C(=O)Nc2ccc(C3CCN(C(=O)C(C)(C)O)CC3)cc2)C1 [Example 71, N-{4-[1-(2-hydroxy-2-methylpropanoyl)piperidin-4-yl]phenyl}-1-(2-methylpyridin-3-yl)azetidine-3-carboxamide]",72.9
12,"Cc1ccncc1N1CC(C(=O)Nc2ccc(C3CCN(C(=O)C(C)(C)O)CC3)cc2)C1 [Example 72, N-{4-[1-(2-hydroxy-2-methylpropanoyl)piperidin-4-yl]phenyl}-1-(4-methylpyridin-3-yl)azetidine-3-carboxamide]",5.69
13,"COc1ncccc1N1CC(C(=O)Nc2ccc(C3CCN(C(=O)C(C)(C)O)CC3)cc2)C1 [Example 73, N-{4-[1-(2-hydroxy-2-methylpropanoyl)piperidin-4-yl]phenyl}-1-(2-methoxypyridin-3-yl)azetidine-3-carboxamide]",1980
14,"O=C(Nc1ccc(OC2CCN(CC3CC3)CC2)cc1)C1CN(c2cccnc2)C1 [Example 74, N-(4-{[1-(cyclopropylmethyl)piperidin-4-yl]oxy}phenyl)-1-(pyridin-3-yl)azetidine-3-carboxamide]",11.4
15,"CC(C)CN1CCC(Oc2ccc(NC(=O)C3CN(c4cccnc4)C3)cc2)CC1 [Example 76, N-(4-{[1-(2-methylpropyl)piperidin-4-yl]oxy}phenyl)-1-(pyridin-3-yl)azetidine-3-carboxamide]",19.1
16,"CCC(CC)CN1CCC(Oc2ccc(NC(=O)C3CN(c4cccnc4)C3)cc2)CC1 [Example 78, N-(4-{[1-(2-ethylbutyl)piperidin-4-yl]oxy}phenyl)-1-(pyridin-3-yl)azetidine-3-carboxamide]",21.2
17,"CCC(C)CN1CCC(Oc2ccc(NC(=O)C3CN(c4cccnc4)C3)cc2)CC1 (stereo not drawn) [Example 80, N-(4-{[1-(2-methylbutyl)piperidin-4-yl]oxy}phenyl)-1-(pyridin-3-yl)azetidine-3-carboxamide]",25.5
18,"O=C(Nc1ccc(OC2CCN(CCC3CC3)CC2)cc1)C1CN(c2cccnc2)C1 [Example 82, N-(4-{[1-(2-cyclopropylethyl)piperidin-4-yl]oxy}phenyl)-1-(pyridin-3-yl)azetidine-3-carboxamide]",9.55

row,SMILES,IC50 [nM]
1,"CCC(C)(C)CN1CCC(Oc2ccc(NC(=O)C3CN(c4cccnc4)C3)cc2)CC1 [Example 84, N-(4-{[1-(2,2-dimethylbutyl)piperidin-4-yl]oxy}phenyl)-1-(pyridin-3-yl)azetidine-3-carboxamide]",38.9
2,"CC(C)(O)C(=O)N1CCC(c2ccc(NC(=O)C3CN(c4ccnnc4)C3)cc2)CC1 [Example 85, N-{4-[1-(2-hydroxy-2-methylpropanoyl)piperidin-4-yl]phenyl}-1-(pyridazin-4-yl)azetidine-3-carboxamide]",20.5
3,"O=C(Nc1ccc(C2CCN(CC3CCCCC3)CC2)cc1)C1CN(c2cccnc2)C1 [Example 86, N-{4-[1-(cyclohexylmethyl)piperidin-4-yl]phenyl}-1-(pyridin-3-yl)azetidine-3-carboxamide]",69.7
4,"CC(C)(C)CCN1CCC(c2ccc(NC(=O)C3CN(c4cccnc4)C3)cc2)CC1 [Example 87, N-{4-[1-(3,3-dimethylbutyl)piperidin-4-yl]phenyl}-1-(pyridin-3-yl)azetidine-3-carboxamide]",31.7
5,"O=C(Nc1ccc(C2CCN(CC3CCCC3)CC2)cc1)C1CN(c2cccnc2)C1 [Example 88, N-{4-[1-(cyclopentylmethyl)piperidin-4-yl]phenyl}-1-(pyridin-3-yl)azetidine-3-carboxamide]",66.3
6,"CCC(C)(C)CN1CCC(c2ccc(NC(=O)C3CN(c4cccnc4)C3)cc2)CC1 [Example 89, N-{4-[1-(2,2-dimethylbutyl)piperidin-4-yl]phenyl}-1-(pyridin-3-yl)azetidine-3-carboxamide]",64.6
7,"CCCC(C)CN1CCC(c2ccc(NC(=O)C3CN(c4cccnc4)C3)cc2)CC1 (stereo not drawn) [Example 90, N-{4-[1-(2-methylpentyl)piperidin-4-yl]phenyl}-1-(pyridin-3-yl)azetidine-3-carboxamide]",60.1
8,"CCCCN1CCC(c2ccc(NC(=O)C3CN(c4cccnc4)C3)cc2)CC1 [Example 91, N-[4-(1-butylpiperidin-4-yl)phenyl]-1-(pyridin-3-yl)azetidine-3-carboxamide]",59.9
9,"CCC(CC)CN1CCC(c2ccc(NC(=O)C3CN(c4cccnc4)C3)cc2)CC1 [Example 92, N-{4-[1-(2-ethylbutyl)piperidin-4-yl]phenyl}-1-(pyridin-3-yl)azetidine-3-carboxamide]",24
10,"CC(C)CCN1CCC(c2ccc(NC(=O)C3CN(c4cccnc4)C3)cc2)CC1 [Example 93, N-{4-[1-(3-methylbutyl)piperidin-4-yl]phenyl}-1-(pyridin-3-yl)azetidine-3-carboxamide]",58.4
11,"CC(C)CN1CCC(c2ccc(NC(=O)C3CN(c4cccnc4)C3)cc2)CC1 [Example 94, N-{4-[1-(2-methylpropyl)piperidin-4-yl]phenyl}-1-(pyridin-3-yl)azetidine-3-carboxamide]",65.7
12,"CCCN1CCC(c2ccc(NC(=O)C3CN(c4cccnc4)C3)cc2)CC1 [Example 95, N-[4-(1-propylpiperidin-4-yl)phenyl]-1-(pyridin-3-yl)azetidine-3-carboxamide]",73.9
13,"COc1ccncc1N1CC(C(=O)Nc2ccc(C3CCN(C(=O)C(C)(C)O)CC3)cc2)C1 [Example 96, N-{4-[1-(2-hydroxy-2-methylpropanoyl)piperidin-4-yl]phenyl}-1-(4-methoxypyridin-3-yl)azetidine-3-carboxamide]",7610
14,"CC(C)(O)C(=O)N1CCC(c2ccc(NC(=O)C3CN(c4cnccc4C#N)C3)cc2)CC1 [Example 97, 1-(4-cyanopyridin-3-yl)-N-{4-[1-(2-hydroxy-2-methylpropanoyl)piperidin-4-yl]phenyl}azetidine-3-carboxamide]",922
15,"CCCCC(=O)N1CCC(c2ccc(NC(=O)C3CN(c4cccnc4)C3)cc2)CC1 [Example 98, N-[4-(1-pentanoylpiperidin-4-yl)phenyl]-1-(pyridin-3-yl)azetidine-3-carboxamide]",6.05
16,"CCC(C)CC(=O)N1CCC(c2ccc(NC(=O)C3CN(c4cccnc4)C3)cc2)CC1 (stereo not drawn) [Example 99, N-{4-[1-(3-methylpentanoyl)piperidin-4-yl]phenyl}-1-(pyridin-3-yl)azetidine-3-carboxamide]",5.72
17,"O=C(Nc1ccc(C2CCN(C(=O)CC3C[C@@H]4CC[C@H]3C4)CC2)cc1)C1CN(c2cccnc2)C1 (stereo partly drawn) [Example 100, N-(4-{1-[(1S,4R)-bicyclo[2.2.1]hept-2-ylacetyl]piperidin-4-yl}phenyl)-1-(pyridin-3-yl)azetidine-3-carboxamide]",6.13
18,"O=C(Nc1ccc(C2CCN(C(=O)CC3CCCC3)CC2)cc1)C1CN(c2cccnc2)C1 [Example 101, N-{4-[1-(cyclopentylacetyl)piperidin-4-yl]phenyl}-1-(pyridin-3-yl)azetidine-3-carboxamide]",0.31
